# From ChEMBL document CHEMBL1681651, “A broad spectrum anticancer nucleoside with selective toxicity against human colon cells in vitro” (2011)
# Experiments:
# Format in all cases: functional
# [1] = system: T47D; experiment: Growth inhibition of human T47D cells assessed as cell growth at 1 uM after 48 hrs by SRB assay; conditions: read-out: Activity
# [2] = system: K562; experiment: Growth inhibition of human K562 cells assessed as cell growth at 10 uM after 48 hrs by SRB assay; conditions: K562, 48 h, read-out: Activity
# [3] = system: HOP-62; experiment: Growth inhibition of human HOP62 cells assessed as cell growth at 10 uM after 48 hrs by SRB assay; conditions: HOP-62, 48 h, read-out: Activity
# [4] = system: HOP-92; experiment: Growth inhibition of human HOP92 cells assessed as cell growth at 10 uM after 48 hrs by SRB assay; conditions: HOP-92, 48 h, read-out: Activity
# [5] = system: NCI-H322M; experiment: Growth inhibition of human NCI-H322M cells assessed as cell growth at 10 uM after 48 hrs by SRB assay; conditions: read-out: Activity
# [6] = Growth inhibition of human […] cells after 48 hrs by […] growth inhibition assay
# [7] = system: NCI-H226; experiment: Growth inhibition of human NCI-H226 cells after 48 hrs by […] growth inhibition assay; conditions: NCI-H226, 48 h
# [8] = system: SNB-75; experiment: Growth inhibition of human SNB75 cells after 48 hrs by […] growth inhibition assay; conditions: SNB-75, 48 h
# [9] = system: IGROV-1; experiment: Growth inhibition of human IGROV1 cells after 48 hrs by […] growth inhibition assay; conditions: IGROV-1, 48 h
# [10] = system: OVCAR-3; experiment: Growth inhibition of human OVCAR3 cells after 48 hrs by […] growth inhibition assay; conditions: OVCAR-3, 48 h
# [11] = system: TK-10; experiment: Growth inhibition of human TK10 cells after 48 hrs by […] growth inhibition assay; conditions: TK-10, 48 h
# [12] = system: HOP-62; experiment: Growth inhibition of human HOP62 cells assessed as cell growth at 0.1 uM after 48 hrs by SRB assay; conditions: HOP-62, 48 h, read-out: Activity
# [13] = system: SNB-75; experiment: Growth inhibition of human SNB75 cells assessed as cell growth at 0.1 uM after 48 hrs by SRB assay; conditions: SNB-75, 48 h, read-out: Activity
# [14] = system: U-251; experiment: Growth inhibition of human U251 cells assessed as cell growth at 0.1 uM after 48 hrs by SRB assay; conditions: U-251, 48 h, read-out: Activity
# [15] = system: ACHN; experiment: Growth inhibition of human ACHN cells assessed as cell growth at 0.1 uM after 48 hrs by SRB assay; conditions: read-out: Activity
# [16] = system: UO-31; experiment: Growth inhibition of human UO31 cells assessed as cell growth at 0.1 uM after 48 hrs by SRB assay; conditions: UO-31, 48 h, read-out: Activity
# [17] = system: DU-145; experiment: Growth inhibition of human DU145 cells assessed as cell growth at 0.1 uM after 48 hrs by SRB assay; conditions: DU-145, 48 h, read-out: Activity
# [18] = system: MCF7; experiment: Growth inhibition of human MCF7 cells assessed as cell growth at 0.1 uM after 48 hrs by SRB assay; conditions: MCF7, 48 h, read-out: Activity
# [19] = system: MDA-MB-231; experiment: Growth inhibition of human MDA-MB-231 cells assessed as cell growth at 0.1 uM after 48 hrs by SRB assay; conditions: MDA-MB-231, 48 h, read-out: Activity
# [20] = system: U-251; experiment: Growth inhibition of human U251 cells assessed as cell growth at 10 uM after 48 hrs by SRB assay; conditions: U-251, 48 h, read-out: Activity
# [21] = system: UACC-257; experiment: Growth inhibition of human UACC257 cells assessed as cell growth at 10 uM after 48 hrs by SRB assay; conditions: UACC-257, 48 h, read-out: Activity
# [22] = system: IGROV-1; experiment: Growth inhibition of human IGROV1 cells assessed as cell growth at 10 uM after 48 hrs by SRB assay; conditions: IGROV-1, 48 h, read-out: Activity
# [23] = system: OVCAR-4; experiment: Growth inhibition of human OVCAR4 cells assessed as cell growth at 10 uM after 48 hrs by SRB assay; conditions: OVCAR-4, 48 h, read-out: Activity
# [24] = system: MCF7; experiment: Growth inhibition of human MCF7 cells assessed as cell growth at 10 uM after 48 hrs by SRB assay; conditions: MCF7, 48 h, read-out: Activity
# [25] = system: CCRF-CEM; experiment: Growth inhibition of human CCRF-CEM cells assessed as cell growth at 100 uM after 48 hrs by SRB assay; conditions: read-out: Activity
# [26] = system: SNB-19; experiment: Growth inhibition of human SNB19 cells assessed as cell growth at 100 uM after 48 hrs by SRB assay; conditions: SNB-19, 48 h, read-out: Activity
# [27] = system: Malme-3M; experiment: Growth inhibition of human MALME-3M cells assessed as cell growth at 100 uM after 48 hrs by SRB assay; conditions: read-out: Activity
# [28] = system: DU-145; experiment: Growth inhibition of human DU145 cells assessed as cell growth at 100 uM after 48 hrs by SRB assay; conditions: DU-145, 48 h, read-out: Activity
# [29] = system: NCI-H23; experiment: Growth inhibition of human NCI-H23 cells assessed as cell growth at 1 mM after 48 hrs by SRB assay; conditions: NCI-H23, 48 h, read-out: Activity
# [30] = system: COLO 205; experiment: Growth inhibition of human COLO205 cells assessed as cell growth at 1 mM after 48 hrs by SRB assay; conditions: COLO 205, 48 h, read-out: Activity
# [31] = system: RXF 393; experiment: Growth inhibition of human RXF393 cells assessed as cell growth at 1 mM after 48 hrs by SRB assay; conditions: RXF 393, 48 h, read-out: Activity
# [32] = Growth inhibition of human […] cells assessed as cell growth at 1 uM after 48 hrs by SRB assay; conditions: read-out: Activity
# [33] = system: HCC 2998; experiment: Growth inhibition of human HCC2998 cells assessed as cell growth at 1 uM after 48 hrs by SRB assay; conditions: HCC 2998, 48 h, read-out: Activity
# [34] = system: HT-29; experiment: Growth inhibition of human HT-29 cells assessed as cell growth at 1 uM after 48 hrs by SRB assay; conditions: HT-29, 48 h, read-out: Activity
# [35] = read-out: LC50 (the source's name)
# [36] = read-out: pLC50 (the source's name) (converted)
structure (smiles),measurement,setting,value
CCOC(=O)C[C@H]1[C@@H](O[Si](C)(C)C(C)(C)C)[C@H](n2cnc3c(NC(=O)Nc4ccccc4)ncnc32)O[C@@H]1CNC(=O)NC,growth at 1 µM,[1],89%
same,growth at 10 µM,[2],89%
same,growth at 10 µM,[3],97%
same,growth at 10 µM,[4],12%
same,growth at 10 µM,[5],95%
same,GI50,[6]; read-out: GI50,1.09 µM
same,CC50,[6]; [35],59 µM
same,TGI,[6]; read-out: TGI,4.57 µM
same,GI50,[6]; read-out: pGI50 (converted),1.1 µM
same,CC50,[6]; [36],58.9 µM
same,TGI,[6]; read-out: pTGI (converted),4.57 µM
same,GI50,[7]; read-out: GI50,> 100 µM
same,CC50,[7]; [35],> 100 µM
same,TGI,[7]; read-out: TGI,> 100 µM
same,GI50,[7]; read-out: pGI50 (converted),> 100 µM
same,CC50,[7]; [36],> 100 µM
same,TGI,[7]; read-out: pTGI (converted),> 100 µM
same,GI50,[8]; read-out: GI50,4.56 µM
same,CC50,[8]; [35],> 100 µM
same,TGI,[8]; read-out: TGI,> 100 µM
same,GI50,[8]; read-out: pGI50 (converted),4.57 µM
same,CC50,[8]; [36],> 100 µM
same,TGI,[8]; read-out: pTGI (converted),> 100 µM
same,GI50,[9]; read-out: GI50,3.85 µM
same,CC50,[9]; [35],79.2 µM
same,TGI,[9]; read-out: TGI,18 µM
same,GI50,[9]; read-out: pGI50 (converted),3.89 µM
same,CC50,[9]; [36],79.4 µM
same,TGI,[9]; read-out: pTGI (converted),18.2 µM
same,GI50,[10]; read-out: GI50,4.59 µM
same,CC50,[10]; [35],91.3 µM
same,TGI,[10]; read-out: TGI,17.2 µM
same,GI50,[10]; read-out: pGI50 (converted),4.57 µM
same,CC50,[10]; [36],91.2 µM
same,TGI,[10]; read-out: pTGI (converted),17 µM
same,GI50,[11]; read-out: GI50,12.4 µM
same,CC50,[11]; [35],> 100 µM
same,TGI,[11]; read-out: TGI,40.5 µM
same,GI50,[11]; read-out: pGI50 (converted),12.3 µM
same,CC50,[11]; [36],> 100 µM
same,TGI,[11]; read-out: pTGI (converted),40.7 µM
same,growth at 0.1 µM,[12],99%
same,growth at 0.1 µM,[13],92%
same,growth at 0.1 µM,[14],98%
same,growth at 0.1 µM,[15],107%
same,growth at 0.1 µM,[16],87%
same,growth at 0.1 µM,[17],110%
same,growth at 0.1 µM,[18],96%
same,growth at 0.1 µM,[19],101%
same,growth at 10 µM,[20],94%
same,growth at 10 µM,[21],99%
same,growth at 10 µM,[22],93%
same,growth at 10 µM,[23],95%
same,growth at 10 µM,[24],89%
same,growth at 100 µM,[25],41%
same,growth at 100 µM,[26],82%
same,growth at 100 µM,[27],50%
same,growth at 100 µM,[28],24%
same,growth at 1000 µM,[29],36%
same,growth at 1000 µM,[30],3%
same,growth at 1000 µM,[31],-59%
same,growth at 1 µM,[32],75%
same,growth at 1 µM,[33],96%
same,growth at 1 µM,[34],105%
